Entries after “also recorded” stand apart in the source; their conditions may differ.
Assays:
[1] = Quantitative T1-mapping MRI of glymphatic transport of intrathecally (cisterna magna) injected Gd-chelate into the brain, transcranial ultrasound vs sham; type: in vivo, rat; set-up: mean gadolinium-enhanced volume: unit not given here
Description: (§1) Animals. The Institutional Animal Care and Use Committees of Stanford University approved all animal experiments. Tests were performed in 42 male Long-Evans rats with bodyweight 300-350 gm (Charles River Laboratories, Wilmington, Mass., USA). Animals were randomly assigned to one of two groups: (1) no treatment (Sham), and (2) treatment (Ultrasound). Ultrasound (0.25 MI in situ, 7.7% duty cycle for 10 min) or sham was applied transcranially throughout the brain (FIG. 1A). Before each procedure, the fur on the neck was shaved and a cisterna magna injection of a gadolinium (Gd) chelate (Multihance, Bracco Diagnostics, NJ, USA) was performed while the animal was anesthetized under isoflurane. The body temperature, cardiac and respiratory rates, and O2 saturation were monitored throughout the experiment and the isoflurane level was titrated to keep these parameters constant; environmental heating was used to help maintain body temperature. Localizer, FLASH-T1-3D, T1-mapping, and T2*-weighted MR images were taken to visualize glymphatic transport across the brain, to quantify Gd-chelate kinetic parameters, and to evaluate for parenchymal damage. In separate cohorts, either of two different sized optical tracers, a small molecule (IR800CW Carboxylate, LICOR, Lincoln, Nebr., USA; ˜1 kDa) or a large molecule (Panitumumab-IRDye800: ˜150 kDa, 5 nM, produced under GMP at the Leidos Biomedical Research Center, Frederick, Md., USA) (39) were co-delivered with the Gd-chelate to model the delivery of similar-sized therapeutic agents.
Intrathecal Cisterna Magna Injection For anesthesia, the animals were induced with 5% isoflurane in oxygen using an induction chamber and then switched to a maintenance dose of 2%. The animal was positioned in a stereotaxic frame (Stoelting, Wood Dale, Ill., USA), immobilized with ear bars, and then the head flexed to 45 degrees. A 27-gauge catheter (Butterfly Needle, SAI Infusion Technology, Lake Villa, Ill., USA) was inserted in the cisterna magna to inject up to 80 μl of tracers (Gd-chelate: MultiHance, gadobenate dimeglumine; Bracco Diagnostics Inc, NJ, USA; 0.21 ml/kg) slowly over 30 seconds. To model the delivery of similar-sized therapeutic agents, two different sized molecules, free dye (IRDye800CW Carboxylate, LICOR, Lincoln, Nebr., USA; ˜1 kDa; 36 nmol/kg) and IR dye-conjugated antibody (Panitumumab-IRDye800: ˜150 kDa; 0.133 mg/kg) were co-delivered with the Gd-chelate. The respiratory rate (45-50 breaths per minute), and normal body temperature (36.5-37.5° C.) were maintained throughout the experiment through titration of isoflurane dose and with environmental heating.
Magnetic Resonance Imaging Protocol. Magnetic Resonance Imaging (MRI) (an actively-shielded Bruker 7T horizontal bore scanner (Bruker Corp, Billerica Mass.), with International Electric Co. (IECO) gradient drivers, a 120 mm ID shielded gradient insert (600 mT/m, 1000 T/m/s), AVANCE III electronics; 8-channel multi-coil RF and multinuclear capabilities and volume RF coils; and the supporting Paravision 6.0.1 platform) was used to visualize glymphatic transport of Gd-chelate into the brain and to make quantitative T1-maps. The facility provides isoflurane anesthesia in medical-grade oxygen, and physiological monitoring of the subject including ECG, pulse oximetry, respiration, and temperature feedback for core body temperature maintenance by warm airflow over the animal. Following cisterna magna contrast agent injection, an MRI compatible animal FUS system (Image Guided Therapy—IGT, Pessac, France) was used in all experiments. Animals were placed in a prone position in a plastic stereotactic frame that has a single channel radiofrequency transmit-receive head coil (IGT) which is coupled to the FUS system. Animals were immobilized in the frame with ear bars and a bite bar. Noninvasive, MRI-compatible monitors for the respiratory rate and body temperature were used during the imaging session. […]

[2] = Near-infrared fluorescence imaging of brain slices after intrathecal co-delivery of optical tracers, transcranial ultrasound vs sham; type: in vivo, rat; settings: about 2 hours after intrathecal delivery, 10 min ultrasound
Description: as §1, with “In separate cohorts, either of two different sized optical tracers, a small molecule (IR800CW Carboxylate, LICOR, Lincoln, Nebr., USA; ˜1 kDa) or a large molecule (Panitumumab-IRDye800: ˜150 kDa, 5 nM, produced under GMP at the Leidos Biomedical Research Center, Frederick, Md., USA) (39) were co-delivered with the Gd-chelate to model the delivery of similar-sized therapeutic agents.” left out
Fluorescence Imaging. […] Tissue sections were thaw-mounted on microscope glass slides (Fisher, Pittsburgh, Pa.), fixed the tissue-slides using 4% paraformaldehyde, and applied DAPI for fluorescence imaging. […]

CNC[C@H](O)[C@@H](O)[C@H](O)[C@H](O)CO.CNC[C@H](O)[C@@H](O)[C@H](O)[C@H](O)CO.O=C([O-])CN(CCN(CC(=O)[O-])CC(=O)O)CCN(CC(=O)O)C(COCc1ccccc1)C(=O)[O-].[Gd+3] (stereo not drawn) [Gd-chelate, gadobenate dimeglumine]
time at which perivascular influx of CSF into the brain is initially observed ([1]; 3D T1w MRI, after intrathecal administration): 12 min
brain volume containing a resolvable amount of contrast agent, ultrasound versus sham ([1]; T1-mapping MRI over time): significantly larger volume of brain
time by which cleared from the CSF-ISF spaces ([1]; T1w MRI after cisternal injection): ≤ 3 h
Gd-chelate deposition in the brain ([1]; T1w MRI, 24-72 h after ultrasound intervention): no any evidence of Gd deposition; also recorded: no prolonged Gd-chelate deposition
mean gadolinium-enhanced volume ([1]; Ultrasound cohort (0.25 MI, 10 min, applied at 23 min), 12 min baseline): 0.18±0.07
mean gadolinium-enhanced volume ([1]; Ultrasound cohort, 35 min): 0.43±0.16
mean gadolinium-enhanced volume ([1]; Ultrasound cohort, 70 min): 0.44±0.17
mean gadolinium-enhanced volume ([1]; Ultrasound cohort, 105 min): 0.45±0.25
mean gadolinium-enhanced volume ([1]; Ultrasound cohort, 180 min): 0.18±0.24
mean gadolinium-enhanced volume ([1]; Ultrasound cohort, 240 min): 0.17±0.24
increase of peak parenchymal uptake with ultrasound ([1]; low-intensity transcranial scanning ultrasound vs sham): 72-101%
mean gadolinium-enhanced volume ([1]; sham cohort, 12 min after intrathecal injection, mean ± S.D.): 0.17±0.084
mean gadolinium-enhanced volume ([1]; sham cohort, 35 min): 0.25±0.15
mean gadolinium-enhanced volume ([1]; sham cohort, 70 min): 0.22±0.1
mean gadolinium-enhanced volume ([1]; sham cohort, 105 min): 0.23±0.11
mean gadolinium-enhanced volume ([1]; sham cohort, 180 min): 0.11±0.12
mean gadolinium-enhanced volume ([1]; sham cohort, 240 min): 0.06±0.04
clearance timeline from the brain ([1]; with ultrasound): 3 h
residual tracer in the brain ([1]; with ultrasound, 3 h post-injection): increased residual tracer in the brain
time of peak parenchymal uptake ([1]; with ultrasound, from injection): 105 min
time of peak brain concentration ([1]; without further intervention (no ultrasound), after intrathecal injection): approximately 35 min
time to clear from the brain interstitial compartment ([1]; without further intervention, from injection): ≤ 3 h

Panitumumab-IRDye800: therapeutic antibody panitumumab (~150 kDa, EGFR-targeted) conjugated with the IR dye; large optical tracer
brain penetration (near-infrared dye-enhanced area), ultrasound compared to sham [2]: significantly greater degree with ultrasound
brain penetration (near-infrared dye-enhanced area), ultrasound compared to sham ([2]; listed as panitumumab): penetrated to a greater degree into the brain

From patent US20220072128A1, “ULTRASOUND-INDUCED CONVECTION FOR DRUG DELIVERY AND TO DRIVE GLYMPHATIC OR LYMPHATIC FLOWS” (The Board of Trustees of the Leland Stanford Junior …, priority 2020, published 2022)
